Measurements published in US7063946B2, “Methods, reagents, kits and apparatus for protein function analysis” (Meso Scale Technologies, LLC., priority 2001, dated 2006).

How the values were obtained:
[1] = target: T1, c-Myc peptide [SEQ ID No. 4] (Homo sapiens, UniProt P01106); experiment: Phosphopeptide binding assay, peptide-BSA coated IPR plate
T1 construct: phosphothreonine (T58) and phosphoserine (S62) (chemical modification); purchased New England Peptide, Fitchburg Mass; host or cells: chemical synthesis
T1 sequence (P01106 with tags, fused parts or gaps limits assumed): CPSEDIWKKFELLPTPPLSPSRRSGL
Protocol: (§1) A phosphopeptide derived from the IkBa degradation motif (SEQ ID NO: 1) and a phosphopeptide derived from c-Myc (SEQ ID NO: 4) were chemically synthesized (New England Peptide, Fitchburg Mass.) with the following sequences respectively:
To prepare IPR plates for use in the assay, approximately 2.4 pmol BSA, 1.2 pmole IκBα-24pp peptide-BSA conjugate or 1.2 pmole of Myc-p58Tp62S peptide-BSA conjugate in 2.5 μl were deposited on the carbon working electrode surface in a single well of a 96-well plate. At this stage, the plates were dried then used or stored under desiccated condition. A few hours prior to usage, the plates were rehydrated and blocked with 3% BSA, in PBS.
Two βTRCP genes, βTRCP1 and βTRCP2, are present in the human genome on […], respectively. The coding sequence of these two genes shares over 90% identity and several full-length cDNAs of which are available as EST clones from Incyte (Palo Alto, Calif.) IMAGE #3491843 and 4237375. Also included were three other non specific EST clones as controls (Incyte, Palo alto, Calif.). […] These DNAs were used to produce the βTRCP protein and proteins encoded by the other DNAs as described in the Example 7. Proteins were transferred into wells of the peptide-coated and BSA-blocked IPR plates. […] The ECL signals were measured using an imaging plate reader (IPR).

[2] = target: T2, IkBa peptide [SEQ ID No. 1] (Homo sapiens, UniProt P25963); experiment: as above
T2 construct: two phosphoserines in the DSGLDS motif (chemical modification); purchased New England Peptide, Fitchburg Mass; host or cells: chemical synthesis
T2 sequence (P25963 with tags, fused parts or gaps limits assumed): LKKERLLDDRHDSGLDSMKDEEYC
Excerpt: as §1
A maleimide pre-activated BSA (Pierce, Pittsburgh Pa.), which contains estimated 17 active maleimide groups on the protein surface, was used as the protein carrier, and was supplied as a lyophilized preparation. Coupling of the IkBa peptide (SEQ ID NO: 1) to the pre-activated BSA was carried out with 2 mg BSA (30 nmol) and 17 equivalents of the 25 residue phosphopeptide in 400 μl PBS. The reaction was terminated with 2 mM […] after incubation at room temperature for 30 minutes. The peptide:BSA conjugate was then purified on PD-10 gel filtration column to remove uncoupled peptide and analyzed with SDS PAGE to monitor the coupling reaction. […] After coupling and purification, the column fractions containing the peptide:BSA conjugates were pooled and the protein concentration of the pooled samples was determined by BCA assay (Pierce, Pittsburgh Pa.). NaN3, (0.02%) was added to the final peptide:BSA conjugate sample for long term storage at 4° C. […]
Two βTRCP genes, βTRCP1 and βTRCP2, are present in the human genome on chromosome 5 and 10, respectively. […] The ECL signals were measured using an imaging plate reader (IPR).

[3] = tested on: pooled phosphopeptide:BSA conjugates (Pools A-D); experiment: Coded multiplex phosphopeptide binding assay with pooled peptide:BSA conjugates on 4 spots; details: for ECL signal, spot A: Pool A, EGFR-pTyr1148, IkBa-24ppC, Myc-p58Tp62S; for ECL signal, spot B: Pool B, EGFR-pTyr992, EGFR-pTyr1148, Smad3C; for ECL signal, spot C: Pool C, EGFR-pTyr1068, IkBa-24ppC, Smad3C; for ECL signal, spot D: Pool D, EGFR-pTyr992, EGFR-pTyr1068, Myc-p58Tp62S
Excerpt: To prepare the Multi-Spot IPR plates, in this example we made use of pools of the peptide:BSA conjugates to coat each of 4 spots per well in a 96 well plate. To achieve this we made the following pools; • Pool A; EGFR-pTyr1148, IkBa-24ppC, Myc-p58Tp62S. • Pool B; EGFR-pTyr992, EGFR-pTyr1148, Smad3C. • Pool C; EGFR-pTyr1068, IkBa-24ppC, Smad3C. • Pool D; EGFR-pTyr992, EGFR-pTyr1068, Myc-p58Tp62S.
This combination of the various peptides results in any single peptide being present in two pools. Each of these four pools is then spotted on to a unique spot in a 4 spot array. In this way any single binding protein with specificity for only one of the peptides would bind to two spots; the identity of the two spots would allow the identification of the peptide involved in the binding reaction.
Typically approximately 120 fmole of peptide:BSA conjugate in 0.25 μl was deposited on each spot of a 4-spot multi-array IPR plates using a BioDot Dispenser (Bio-Dot Inc., vIrvine Calif.). At this stage, the plates were dried then used or stored under desiccated condition. A few hours prior to usage, the plates were rehydrated and blocked with 3% BSA, in PBS.
To test the system the following EST clones IMAGE # 3491843, 4237375, 4398016, 4419252, 3872466, 3907115 were obtained. These clones express the following genes βTRCP1, βTRCP2, Grb2, PLCγ, CBP and Shc1, respectively. […] These DNAs were used to produce proteins as described in the Materials and Methods. Proteins were transferred to a well of the 4 spot peptide-coated and BSA blocked ECL plates. The binding assay (using Sulfo-TAG labeled streptavidin as a detection agent) was carried our according to the procedures described in Example 11.

Average ECL signal, c-Myc peptide [SEQ ID No. 4] [1]	Average ECL signal, IkBa peptide [SEQ ID No. 1] [2]	Code (pattern of positive spots) [3]	Peptide determined from code [3]	ECL signal, spot A [3]	ECL signal, spot B [3]	ECL signal, spot C [3]	ECL signal, spot D [3]	Substance
2118	40879	A, C	IkBa-24ppC	9536	208	11184	171	3491843: IMAGE clone protein: βTRCP1 [compound 3491843]
351	371	Neg.	Negative	19	30	22	15	3872466: IMAGE clone protein: mCBP [compound 3872466]
